Experimental data as given in article PMC8620910, “Design and Synthesis of (2-oxo-1,2-Dihydroquinolin-4-yl)-1,2,3-triazole Derivatives via Click Reaction: Potential Apoptotic Antiproliferative Agents” (Molecules, 2021).

How the values were obtained:
[1] = test system: pancreatic cancer cell line (Panc-1); experiment: Anti-proliferative propidium iodide fluorescence assay, Panc-1; type: cell-based; conditions: Homo sapiens, read-out: Anti-Proliferative Activity IC50 ± SEM, Panc-1
Protocol: (§1) Tested 8a–l compounds were assessed for their anti-proliferative activity against four human cancer cell lines, including the pancreatic cancer cell line (Panc-1), breast cancer cell line (MCF-7), colon cancer cell line (HT-29), and epithelial cancer cell line (A-549) using propidium iodide fluorescence assay and the reference doxorubicin. Results (IC50) are illustrated in Table 3.
(§2) To explore the anti-proliferative potential of compounds, propidium iodide fluorescence assay was performed using different cell lines such as Panc-1 (pancreas cancer cell line), MCF-7 (breast cancer cell line), HT-29 (colon cancer cell line), and A-549 (epithelial cancer cell line), respectively. To calculate the total nuclear DNA, a fluorescent dye (propidium iodide, PI) is used to attach to the DNA, thus offering a quick and precise technique. PI cannot pass through the cell membrane, and its signal intensity can be considered as directly proportional to the quantity of cellular DNA. Cells whose cell membranes are damaged or have changed permeability are counted as dead ones. The assay was performed by seeding the cells of different cell lines at a density of 3000–7500 cells/well (in 200 μL medium) in culture plates followed by incubation for 24 h at 37 °C in humidified 5%CO2/95% air atmospheric conditions. The medium was removed; the compounds were added to the plates at 10 μM concentrations (in 0.1% DMSO) in triplicates, followed by incubation for 48h. DMSO (0.1%) was used as a control. After incubation, the medium was removed, followed by the addition of PI (25 μL, 50 μg/mL in water/medium) to each well of the plates. At −80 °C, the plates were allowed to freeze for 24 h, followed by thawing at 25 °C. A fluorometer (Polar-Star BMG Tech, Beijing, China) was used to record the readings at excitation and emission wavelengths of 530 and 620 nm for each well. The percentage cytotoxicity of compounds was calculated using the following formula: % Cytotoxicity=AC−ATC/AC×100 where ATC = absorbance of treated cells and AC = absorbance of control. Doxorubicin was used as a positive control in the assay.

[2] = test system: colon cancer cell line (HT-29); experiment: Anti-proliferative propidium iodide fluorescence assay, HT-29; type: cell-based; conditions: Homo sapiens, read-out: Anti-Proliferative Activity IC50 ± SEM, HT-29
Protocol: as §1, §2

[3] = test system: A-549, MCF-7, Panc-1 and HT-29 cell lines; experiment: Average anti-proliferative IC50 over the four cancer cell lines; type: cell-based, human; conditions: for IC50: Homo sapiens, average of A-549, MCF-7, Panc-1, HT-29; for fold decrease in activity relative to 8c: from average IC50
Protocol: as §1, with “doxorubicin.” for “doxorubicin. Results (IC50) are illustrated in Table 3.”
as §2

[4] = test system: breast cancer cell line (MCF-7); experiment: Anti-proliferative propidium iodide fluorescence assay, MCF-7; type: cell-based; conditions: Homo sapiens, MCF7; read-out: Anti-Proliferative Activity IC50 ± SEM, MCF-7
Protocol: as §1, §2

[5] = test system: epithelial cancer cell line (A-549); experiment: Anti-proliferative propidium iodide fluorescence assay, A-549; type: cell-based; conditions: Homo sapiens, A549; read-out: Anti-Proliferative Activity IC50 ± SEM, A-549
Protocol: as §1, §2

[6] = Cell viability assay (MTT) on MCF-10A; type: cell-based; conditions: human, MCF-10A mammary epithelial cells, four days
Protocol: A human mammary gland epithelial cell line was used in the cell viability assay (MCF-10A). MCF-10A cells were incubated with compounds 8a–l for four days, and cell viability was determined using an MTT assay.
An MTT assay was performed to investigate the effect of the synthesized compounds on mammary epithelial cells (MCF-10A) at a concentration of 50 µM for the tested compound. The cells were propagated in a medium consisting of Ham’s F-12 medium/Dulbecco’s modified Eagle’s medium (DMEM) (1:1) supplemented with 10% fetal calf serum, 2 mM glutamine, insulin (10 μg/mL), hydrocortisone (500 ng/mL), and epidermal growth factor (20 ng/mL). Trypsin ethylenediamine tetra acetic acid (EDTA) was used to pass the cells every 2–3 days. Ninety-six-well flat-bottomed cell culture plates were used to seed the cells at a density of 10^4 cells mL^−1. The medium was aspirated from all the wells of culture plates after 24 h followed by the addition of synthesized compounds (in 200 μL medium to yield a final concentration of 0.1% (v/v) dimethylsulfoxide) into individual wells of the plates. Four wells were designated to a single compound. The plates were allowed to incubate at 37 °C for 96 h. Afterward, the medium was aspirated, and 3-[4,5-dimethylthiazol-2-yl]-2,5-diphenyltetrazolium bromide (MTT) (0.4 mg/mL) in the medium was added to each well and subsequently incubated for 3 h. The medium was aspirated, and 150 μL dimethyl sulfoxide (DMSO) was added to each well. The plates were vortexed, followed by the measurement of absorbance at 540 nm on a microplate reader. The results were presented as inhibition (%) of proliferation compared to controls comprising 0.1% DMSO.

active Caspase 3 = experiment: Caspase 3 activation assay in MCF-7
Protocol: All reagents were allowed to reach room temperature before use. All liquid reagents were gently mixed before use. The number of 8-well strips needed for the assay was determined. These were inserted into the frame(s) for current use. A total of 100 μL of the Standard Diluent Buffer was added to the zero standard wells. Well(s) reserved for chromogen blank were left empty. A total of 100 μL of standards and controls or diluted samples was added to the appropriate microtiter wells. The sample dilution chosen was optimized for each experimental system. The side of the plate was gently tapped on to mix. Wells were covered with a plate cover and incubated for 2 h at room temperature. […]
The working dilution was prepared as described in Preparing IgG HRP. […] The incubation time for chromogen substrate was determined by the microtiter plate reader used.
Many plate readers have the capacity to record a maximum optical density (O.D.) of 2.0. The O.D. values were monitored, and the substrate reaction was stopped before the O.D. of the positive wells exceeds the limits of the instrument. The O.D. values at 450 nm could only be read after the Stop Solution had been added to each well. […] The absorbance of each well was read at 450 nm, having blanked the plate reader against a chromogen blank composed of 100 μL each of Stabilized Chromogen and Stop Solution. […]

Row | SMILES | IC50 [1] [µM] | IC50 [2] [µM] | IC50 [3] [µM] | IC50 [4] [µM] | IC50 [5] [µM] | fold reduction of the average IC50 value relative to 8a ([3]; replacement of NH by N-CH3) | viability at 96 h, 50 µM [6] [%] | Caspase 3 Conc (active Caspase 3; MCF-7) [pg/mL] | Caspase 3 Fold Change (active Caspase 3; MCF-7, versus untreated control) [fold] | fold decrease in activity relative to 8c [3] [fold]
1 | COc1ccc2[nH]c(=O)c(C(c3ccc(OCc4cn(-c5cc(=O)[nH]c6ccc(C)cc56)nn4)cc3)c3c(O)c4cc(OC)ccc4[nH]c3=O)c(O)c2c1 [Compound 8f, 3,3’-((4-((1-(6-Methyl-2-oxo-1,2-dihydroquinolin-4-yl)-1H-1,2,3-triazol-4-yl)methoxy)phenyl)methylene)bis(4-hydroxy-6-methoxyquinolin-2(1H)-one)] | 3.1 ± 0.2 | 3.4 ± 0.2 | 3 | 2.6 ± 0.8 | 2.9 ± 0.5 |  | 87 | 365.60 ± 3.20 | 5.57 | 
2 | COc1ccc2[nH]c(=O)c(C(c3ccc(OCc4cn(-c5cc(=O)n(C)c6ccccc56)nn4)cc3)c3c(O)c4cc(OC)ccc4[nH]c3=O)c(O)c2c1 [Compound 8h, 3,3’-((4-((1-(1-Methly-2-oxo-1,2-dihydroquinolin-4-yl)-1H-1,2,3-triazol-4-yl)methoxy)phenyl)methylene)bis(4-hydroxy-6-methoxyquinolin-2(1H)-one)] | 10.8 ± 1.9 | 10.8 ± 1.6 | 10.7 | 10.6 ± 2.9 | 10.7 ± 2.5 |  | 90 |  |  | 
3 | COc1ccc2[nH]c(=O)cc(-n3cc(COc4ccc(C(c5c(O)c6ccccc6[nH]c5=O)c5c(O)c6ccccc6[nH]c5=O)cc4)nn3)c2c1 [Compound 8c, 3,3’-((4-((1-(6-Methoxy-2-oxo-1,2-dihydroquinolin-4-yl)-1H-1,2,3-triazol-4-yl)methoxy)phenyl)methylene)bis(4-hydroxyquinolin-2(1H)-one)] | 4.1 ± 0.2 | 4.2 ± 0.2 | 3.85 | 3.2 ± 0.08 | 3.9 ± 0.5 |  | 91 |  |  | 
4 | Cn1c(=O)c(C(c2ccc(OCc3cn(-c4cc(=O)[nH]c5ccccc45)nn3)cc2)c2c(O)c3ccccc3n(C)c2=O)c(O)c2ccccc21 [Compound 8i, 3,3’-((4-((1-(2-oxo-1,2-dihydroquinolin-4-yl)-1H-1,2,3-triazol-4-yl)methoxy)phenyl)-methylene)bis(4-hydroxy-1-methylquinolin-2(1H)-one)] | 17.6 ± 1.5 | 17.9 ± 1.1 | 17.8 | 17.8 ± 1.6 | 17.9 ± 0.3 |  | 90 |  |  | 
5 | Cn1c(=O)cc(-n2cc(COc3ccc(C(c4c(O)c5ccccc5[nH]c4=O)c4c(O)c5ccccc5[nH]c4=O)cc3)nn2)c2ccccc21 [Compound 8d, 3,3’-((4-((1-(1-Methly-2-oxo-1,2-dihydroquinolin-4-yl)-1H-1,2,3-triazol-4-yl)methoxy)phenyl)methylene)bis(4-hydroxyquinolin-2(1H)-one)] | 11.6 ± 0.8 | 11.4 ± 1.2 | 11.8 | 11.5 ± 1.1 | 12.9 ± 0.8 |  | 89 |  |  | 
6 | Cc1ccc2[nH]c(=O)cc(-n3cc(COc4ccc(C(c5c(O)c6ccccc6[nH]c5=O)c5c(O)c6ccccc6[nH]c5=O)cc4)nn3)c2c1 [Compound 8b, 3,3’-((4-((1-(6-Methyl-2-oxo-1,2-dihydroquinolin-4-yl)-1H-1,2,3-triazol-4-yl)methoxy)phenyl)methylene)bis(4-hydroxyquinolin-2(1H)-one)] | 7.6 ± 0.6 | 7.5 ± 0.4 | 7.4 | 6.9 ± 0.8 | 7.6 ± 0.8 |  | 87 |  |  | 2
7 | O=c1cc(-n2cc(COc3ccc(C(c4c(O)c5ccccc5[nH]c4=O)c4c(O)c5ccccc5[nH]c4=O)cc3)nn2)c2ccccc2[nH]1 [Compound 8a, 3,3’-((4-((1-(2-oxo-1,2-dihydroquinolin-4-yl)-1H-1,2,3-triazol-4-yl)methoxy)phenyl)-methylene)bis(4-hydroxyquinolin-2(1H)-one)] | 5.6 ± 0.6 | 5.7 ± 0.4 | 5.58 | 5.3 ± 0.8 | 5.7 ± 0.4 |  | 89 |  |  | 1.5

Now from value to compound, other results behind:

Row | IC50 [1] [µM] | IC50 [2] [µM] | IC50 [3] [µM] | IC50 [4] [µM] | IC50 [5] [µM] | fold reduction of the average IC50 value relative to 8a ([3]; replacement of NH by N-CH3) | SMILES | viability at 96 h, 50 µM [6] [%] | Caspase 3 Conc (active Caspase 3; MCF-7) [pg/mL] | Caspase 3 Fold Change (active Caspase 3; MCF-7, versus untreated control) [fold] | fold decrease in activity relative to 8c [3] [fold]
8 | 22.4 ± 0.2 | 22.9 ± 0.6 | 22.5 | 22.1 ± 0.1 | 22.5 ± 0.2 |  | Cc1ccc2[nH]c(=O)cc(-n3cc(COc4ccc(C(c5c(O)c6ccccc6n(C)c5=O)c5c(O)c6ccccc6n(C)c5=O)cc4)nn3)c2c1 [Compound 8j, 3,3’-((4-((1-(6-Methyl-2-oxo-1,2-dihydroquinolin-4-yl)-1H-1,2,3-triazol-4-yl)methoxy)phenyl)methylene)bis(4-hydroxy-1-methylquinolin-2(1H)-one)] | 81 |  |  | 
9 | 14.6 ± 2.9 | 14.8 ± 1.4 | 14.4 | 13.6 ± 2.2 | 14.5 ± 2.6 |  | COc1ccc2[nH]c(=O)cc(-n3cc(COc4ccc(C(c5c(O)c6ccccc6n(C)c5=O)c5c(O)c6ccccc6n(C)c5=O)cc4)nn3)c2c1 [Compound 8k] | 90 |  |  | 
10 | 24.5 ± 2.3 | 24.2 ± 1.4 | 24.7 | 24.9 ± 1.8 | 25.3 ± 2.5 | at least 4 fold | Cn1c(=O)cc(-n2cc(COc3ccc(C(c4c(O)c5ccccc5n(C)c4=O)c4c(O)c5ccccc5n(C)c4=O)cc3)nn2)c2ccccc21 [Compound 8l, 3,3’-((4-((1-(1-Methyl-2-oxo-1,2-dihydroquinolin-4-yl)-1H-1,2,3-triazol-4-yl)methoxy)phenyl)methylene)bis(4-hydroxy-1-methylquinolin-2(1H)-one)] | 96 |  |  | 
